Mutagenic call data for five molecules are collected here from PubChem BioAssay AID1259407 (Chemical Carcinogenesis Research Information System (CCRIS), 2018).

The data set concerns CCRIS mutagenicity, Ames/micronucleus/aberration tests. The experiment in a line: CCRIS mutagenicity studies.
The mark [1] stands for this setting: Test System: AMES SALMONELLA TYPHIMURIUM, Strain/Indicator: TA98, Metabolic Activation: NONE, Method: STANDARD PLATE.
Where [2] appears, read: Test System: AMES SALMONELLA TYPHIMURIUM, Strain/Indicator: TA100, Metabolic Activation: NONE, Method: STANDARD PLATE.
The mark [3] stands for this setting: Test System: AMES SALMONELLA TYPHIMURIUM, Strain/Indicator: TA1537, Metabolic Activation: NONE, Method: STANDARD PLATE.

Calls of active or inactive are those of the source. No rule for the calls is given here.

For the molecule `COC(F)(F)C(Cl)Cl`, the mutagenic call reads like this: (Test System: AMES SALMONELLA TYPHIMURIUM, Strain/Indicator: TA97, Metabolic Activation: HAMSTER, LIVER, S-9, AROCLOR 1254 (10 OR 30%), Method: PREINCUBATION) “inactive; negative”; (Test System: AMES SALMONELLA TYPHIMURIUM, Strain/Indicator: TA97, Metabolic Activation: NONE, Method: PREINCUBATION) “inactive; negative”; (Test System: AMES SALMONELLA TYPHIMURIUM, Strain/Indicator: TA97, Metabolic Activation: RAT, LIVER, S-9, AROCLOR 1254 (10 OR 30%), Method: PREINCUBATION) “inactive; negative”; (Test System: AMES SALMONELLA TYPHIMURIUM, Strain/Indicator: TA98, Metabolic Activation: HAMSTER, LIVER, S-9, AROCLOR 1254 (10 OR 30%), Method: PREINCUBATION) “inactive; negative”; (Test System: AMES SALMONELLA TYPHIMURIUM, Strain/Indicator: TA98, Metabolic Activation: HAMSTER, LIVER, S-9, AROCLOR 1254 (30%), Method: DESICCATOR) “inactive; negative”; (Test System: AMES SALMONELLA TYPHIMURIUM, Strain/Indicator: TA98, Metabolic Activation: NONE, Method: DESICCATOR) “inactive; negative”. The mutagenic call by setting is: (Test System: AMES SALMONELLA TYPHIMURIUM, Strain/Indicator: TA98, Metabolic Activation: NONE, Method: PREINCUBATION) “inactive; negative”; (Test System: AMES SALMONELLA TYPHIMURIUM, Strain/Indicator: TA98, Metabolic Activation: RAT, LIVER, S-9, AROCLOR 1254 (10 OR 30%), Method: PREINCUBATION) “inactive; negative”; (Test System: AMES SALMONELLA TYPHIMURIUM, Strain/Indicator: TA98, Metabolic Activation: RAT, LIVER, S-9, AROCLOR 1254 (30%), Method: DESICCATOR) “inactive; negative”; (Test System: AMES SALMONELLA TYPHIMURIUM, Strain/Indicator: TA100, Metabolic Activation: HAMSTER, LIVER, S-9, AROCLOR 1254 (10 OR 30%), Method: PREINCUBATION) “inactive; negative”; (Test System: AMES SALMONELLA TYPHIMURIUM, Strain/Indicator: TA100, Metabolic Activation: HAMSTER, LIVER, S-9, AROCLOR 1254 (30%), Method: DESICCATOR) “inactive; negative”; (Test System: AMES SALMONELLA TYPHIMURIUM, Strain/Indicator: TA100, Metabolic Activation: NONE, Method: DESICCATOR) “inactive; negative”. For the same molecule, the mutagenic call (Test System: AMES SALMONELLA TYPHIMURIUM, Strain/Indicator: TA100, Metabolic Activation: NONE, Method: PREINCUBATION) was “inactive; negative”; the mutagenic call (Test System: AMES SALMONELLA TYPHIMURIUM, Strain/Indicator: TA100, Metabolic Activation: RAT, LIVER, S-9, AROCLOR 1254 (10 OR 30%), Method: PREINCUBATION) is “inactive; negative”; the mutagenic call (Test System: AMES SALMONELLA TYPHIMURIUM, Strain/Indicator: TA100, Metabolic Activation: RAT, LIVER, S-9, AROCLOR 1254 (30%), Method: DESICCATOR) was “inactive; negative”; the mutagenic call (Test System: AMES SALMONELLA TYPHIMURIUM, Strain/Indicator: TA1535, Metabolic Activation: HAMSTER, LIVER, S-9, AROCLOR 1254 (10 OR 30%), Method: PREINCUBATION) was “inactive; negative”; the mutagenic call (Test System: AMES SALMONELLA TYPHIMURIUM, Strain/Indicator: TA1535, Metabolic Activation: NONE, Method: PREINCUBATION) was “inactive; negative”; the mutagenic call (Test System: AMES SALMONELLA TYPHIMURIUM, Strain/Indicator: TA1535, Metabolic Activation: RAT, LIVER, S-9, AROCLOR 1254 (10 OR 30%), Method: PREINCUBATION) is “inactive; negative”.
For `COc1ccc2c(c1)[C@@H]1CCCC[C@H]1C=C2`, the mutagenic call by setting is: (Test System: AMES SALMONELLA TYPHIMURIUM, Strain/Indicator: TA98, Metabolic Activation: RAT, LIVER, S-9, SODIUM PHENOBARBITAL AND BETA-NAPHTHOFLAVONE, Method: STANDARD PLATE) “active; positive”; (Test System: AMES SALMONELLA TYPHIMURIUM, Strain/Indicator: TA100, Metabolic Activation: RAT, LIVER, S-9, SODIUM PHEOBARBITAL AND BETA-NAPHTHOFLAVONE, Method: STANDARD PLATE) “active; positive”.
As to `CC(=O)OCCCCCCCCONC(=O)c1ccccc1`, the mutagenic call by setting is: under setting [1], “active; positive”; under setting [2], “active; positive”; (Test System: AMES SALMONELLA TYPHIMURIUM, Strain/Indicator: TA100, Metabolic Activation: RAT, S-9, AROCLOR, Method: STANDARD PLATE) “inactive; negative”.
Consider `C[CH2][Ge]([Cl])([CH2]C)[CH2]C`, for which the mutagenic call was “inactive; negative” (Test System: AMES SALMONELLA TYPHIMURIUM, Strain/Indicator: TA98, Metabolic Activation: HAMSTER, LIVER, S-9, AROCLOR 1254 (10%), Method: STANDARD PLATE); “inactive; negative” under setting [1]; “inactive; negative” (Test System: AMES SALMONELLA TYPHIMURIUM, Strain/Indicator: TA98, Metabolic Activation: RAT, LIVER, S-9, AROCLOR 1254 (10%), Method: STANDARD PLATE); “inactive; negative” (Test System: AMES SALMONELLA TYPHIMURIUM, Strain/Indicator: TA100, Metabolic Activation: HAMSTER, LIVER, S-9, AROCLOR 1254 (10%), Method: STANDARD PLATE); “inactive; negative” under setting [2]; “inactive; negative” (Test System: AMES SALMONELLA TYPHIMURIUM, Strain/Indicator: TA100, Metabolic Activation: RAT, LIVER, S-9, AROCLOR 1254 (10%), Method: STANDARD PLATE). Also, the mutagenic call reads like this: (Test System: AMES SALMONELLA TYPHIMURIUM, Strain/Indicator: TA1535, Metabolic Activation: HAMSTER, LIVER, S-9, AROCLOR 1254 (10%), Method: STANDARD PLATE) “inactive; negative”; (Test System: AMES SALMONELLA TYPHIMURIUM, Strain/Indicator: TA1535, Metabolic Activation: NONE, Method: STANDARD PLATE) “inactive; negative”; (Test System: AMES SALMONELLA TYPHIMURIUM, Strain/Indicator: TA1535, Metabolic Activation: RAT, LIVER, S-9, AROCLOR 1254 (10%), Method: STANDARD PLATE) “inactive; negative”; (Test System: AMES SALMONELLA TYPHIMURIUM, Strain/Indicator: TA1537, Metabolic Activation: HAMSTER, LIVER, S-9, AROCLOR 1254 (10%), Method: STANDARD PLATE) “inactive; negative”; under setting [3], “inactive; negative”; (Test System: AMES SALMONELLA TYPHIMURIUM, Strain/Indicator: TA1537, Metabolic Activation: RAT, LIVER, S-9, AROCLOR 1254 (10%), Method: STANDARD PLATE) “inactive; negative”. Besides, the mutagenic call by setting is: (Test System: AMES SALMONELLA TYPHIMURIUM, Strain/Indicator: TA1538, Metabolic Activation: HAMSTER, LIVER, S-9, AROCLOR 1254 (10%), Method: STANDARD PLATE) “inactive; negative”; (Test System: AMES SALMONELLA TYPHIMURIUM, Strain/Indicator: TA1538, Metabolic Activation: NONE, Method: STANDARD PLATE) “inactive; negative”; (Test System: AMES SALMONELLA TYPHIMURIUM, Strain/Indicator: TA1538, Metabolic Activation: RAT, LIVER, S-9, AROCLOR 1254 (10%), Method: STANDARD PLATE) “inactive; negative”; (Test System: MOUSE LYMPHOMA, Strain/Indicator: L5178Y (TK+/TK-), Metabolic Activation: NONE, Method: SUSPENSION/PLATE) “inactive; negative. reevaluation of results: inconclusive”; (Test System: MOUSE LYMPHOMA, Strain/Indicator: L5178Y (TK+/TK-), Metabolic Activation: RAT, LIVER, S-9, AROCLOR 1254, Method: SUSPENSION/PLATE) “inactive; negative. reevaluation of results: negative”.
For `CN(C)CCNC(=O)c1cccc2[nH]c(-c3ccccc3)nc12`, under setting [3], the mutagenic call was “active; positive”.
